# Experimental data from patent publication US9549912B2, “Methods for treating atrial fibrillation” (Armetheon, Inc., priority 2009, dated 2017).
# Experiments:
# [1] = Safety and tolerability (Example 2); assay type: in vivo, human
# Excerpt: Safety: treatment-emergent adverse event (TEAE) type, severity, and incidence; clinical laboratory assessments, including thyroid function and testicular function (males); coagulation tests; vital signs; physical examinations; ECGs; eye examinations; chest X-rays; and pulmonary function tests.
# Statistical methods for safety: Adverse events (AEs) were summarized by system organ class and preferred term. Laboratory parameters and vital signs were summarized by descriptive statistics and shift tables were also created for laboratory parameters. The percent of patients with physical examination findings that changed over the study, with ECG abnormalities by visit, and with corneal deposits were summarized. Chest X-rays and pulmonary function test results were provided in listings.
# [2] = tested on: sodium, potassium, and calcium ion channels; test: Electrophysiological activity in animals: ion channel inhibition
substance,measurement,setting,value
"(S)-sec-butyl 2-(3-(4-(2-(diethylamino)ethoxy)-3,5-diiodobenzoyl)benzofuran-2-yl)acetate [ATI-2042]",tolerability,"[1]; 200, 400, 600 mg BID, up to 12 weeks",well tolerated
same,creatinine,[1]; BUN unchanged,reversible elevation
same,ALT,[1]; appeared dose related,"mild, reversible increase"
same,corneal deposits (slit-lamp examination),[1]; end of treatment period,No patient treated with ATI-2042 developed corneal deposits
same,SAEs possibly related to drug,[1]; hematuria and high INR,Only one SAE was possibly related
same,"amiodarone-like end-organ toxicity (pulmonary fibrosis, corneal deposits, neuropathy, photosensitivity)",[1]; in vivo,No evidence of amiodarone-like end-organ toxicity was seen
same,thyroid function changes,[1]; in vivo,mild and reversible
same,most frequent TEAEs,[1]; patients on concomitant warfarin,changes in INR values
same,"inhibition of sodium, potassium, and calcium ion channels",[2],inhibition comparable with amiodarone
